Experimental data taken from US20020049157A1, “Use of proteasome inhibitors for treating cancer, inflammation, autoimmune disease, graft rejection and septic shock” (priority 1998, published 2002).

Key:
Assay type in all cases: cell-based
[1] = test system: mouse peritoneal exudate macrophages; test: LPS-induced nitric oxide production by macrophages (nitrite, Griess reagent); conditions: 2 μg/ml LPS; lactacystin at different concentrations
Protocol: Nitric oxide production by the macrophages was measured according to the […] concentrations in the supernatants.
BALB/c mice were injected i.p. with 3 ml of 3% thioglycollate broth. Three days later, peritoneal exudate macrophages of the mice were harvested and washed at 170 g for 10 min at 4° C. The macrophages were cultured in Teflon vials (2 cm in diameter) at 4×10^6/2 ml with various reagents (LPS, 2 μg/ml; IFNγ, 100 u/ml; LAC, 0.62-5 μM for the nitric oxide assay and 5 μM for the Northern blot assay).
The nitrite concentration in the culture supernatant was measured as a way to indirectly reflect the nitric oxide level following a method described by Ding et al (Ding et al., 1988, J. Immunology 141:2407). Release of reactive nitrogen intermediates and reactive oxygen intermediates form mouse peritoneal macrophages: comparison of activation cytokines and evidence for independent production. Briefly, 100 μl of supernatants collected from 48 h macrophage cultures was incubated with an equal volume of the Griess reagent (1% sulfanimide/0.1% naphthylethylene diamine dihydrochloride/2.5% H3PO4) at room temperature for 10 min in 96-well microtitration plates, the O.D. was measured at 550 nm. Sodium nitrite of various concentrations were used to construct standard curves.

[2] = test system: Bik; test: Immunoblotting of Bik in mitochondrial fraction of Jurkat cells; conditions: lactacystin 6 μM
Protocol: Jurkat cells were treated with lactacystin (6 μM) for 5 h (lanes 2 and 4 of panel […]) or 7 h (lane 3 of panel B), lane 1 in panels A and B is untreated control samples. The cells were separated into mitochondrial (mito in panel A and mitochondria in panel B) and cytosolic (cytosol in panel A) fractions, and the lysate of these two fractions analyzed by immunoblotting using goat anti-Bik, and rabbit anti-Bax, Bak and Bad Ab (all from Santa Cruz Biotech, Santa Cruz, Calif.) followed by enhanced chemiluminescence (ECL, kit from Amersham). […] Jurkat cells, wild type Namalwa cells and Bcl-xL transfected Namalwa cells were treated with medium (lanes 1), staurosporine (0.3 μM, lanes 2) and lactacystin (6 μM, lanes 3) for 6 H. The proteins from the mitochondrial fraction of these cells were analyzed by immunoblotting and the amount of Bik, Bcl-xL, Bax, and Bak evaluated. The same membranes were used sequentially and probed with different antibodies against these factors. A nonspecific band recognized by a monoclonal antibody against cytochrome […] (COX) was used as control for even sample loading in the lanes.

[3] = test system: Jurkat cells; test: Cell cycle progress in synchronized Jurkat cells (propidium iodide flow cytometry)
Protocol: For the last 3 h of the treatment, LAC (6 μM) was added to the cultures destined to be treated by LAC later. The cells were then released by washing out nocodazole, and recultured in complete medium with or without 6 μM LAC. The cells were sampled at 0 h, 4 h and 8 h after the G2/M release, stained with propidium iodide, and analyzed with flow cytometry.
B. LAC slows the cell cycle progress from the G1/S boundary to the G2/M phase in synchronized Jurkat cells Jurkat cells were synchronized at the G1/S by isoleucine starvation followed by a hydroxyurea treatment. The synchronized cells were released by washing out hydroxyurea and were cultured in complete medium in the absence or presence of LAC (6 μM). The cells were sampled at 0 h, 3 h, 6 h, 9 h, 12 h, 15 h and 24 h after the release, and were stained with propidium iodide and analyzed with flow cytometry.
We used synchronized Jurkat cells to identify the LAC-sensitive phase(s) of the cell cycle. Jurkat cells were first synchronized at the G2/M boundary by nocodazole (FIG. 6A). […]
We next studied requirement of the proteasome activity for the progression from the G1/S boundary to the G2/M phase. […] It is to be noted that although the percentage of cells in the S/G2/M phase in the LAC-treated sample was similar to that of controls (the inset table of FIG. 6B), the peak of fluorescence was lagged behind (histogram array). […]

## CC(=O)N[C@@H](CSC(=O)[C@]1([C@@H](O)C(C)C)NC(=O)[C@H](C)[C@@H]1O)C(=O)O [LAC, lactacystin]
[1]
  LPS-induced NO production: effectively repress
[2]; 6 h, staurosporine 0.3 μM
  accumulation of Bik in Jurkat cells: accumulates
[2]; 4 h, 5 h and 7 h
  amount of Bik: demonstable increase
[3]; HU-synchronized, LAC 6 μM added immediately after release
  cell cycle progression from the G1/S boundary to the G2/M phase: slowed but did not block
[3]; nocodazole-synchronized, LAC 6 μM 3 h before and after release
  progress from G2/M through M phase to G1 phase: at a similar pace as the control cells
